{"source": "ChEMBL document CHEMBL1145897", "about": "“Synthesis and biological evaluation of 2,4-diamino-6-(arylaminomethyl)pyrido[2,3-d]pyrimidines as inhibitors of Pneumocystis carinii and Toxoplasma gondii dihydrofolate reductase and as antiopportunistic infection and antitumor agents” (J Med Chem, 2003)", "key": {"[1]": {"test": "Ratio of inhibitory activity against dihydrofolate reductase of rat liver to pneumocystis carinii"}, "[2]": {"test": "Ratio of inhibitory activity against dihydrofolate reductase of rat liver to Toxoplasma gondii"}, "Toxoplasma gondii [3]": {"tested_on": "Toxoplasma gondii", "test": "Inhibitory activity against cell growth of Toxoplasma gondii measured by the incorporation of [3H]uracil at <=10 uM"}, "Dihydrofolate reductase": {"biological_target": "T1, Dihydrofolate reductase (Rattus norvegicus, UniProt Q920D2)", "T1 sequence (Q920D2 whole entry)": "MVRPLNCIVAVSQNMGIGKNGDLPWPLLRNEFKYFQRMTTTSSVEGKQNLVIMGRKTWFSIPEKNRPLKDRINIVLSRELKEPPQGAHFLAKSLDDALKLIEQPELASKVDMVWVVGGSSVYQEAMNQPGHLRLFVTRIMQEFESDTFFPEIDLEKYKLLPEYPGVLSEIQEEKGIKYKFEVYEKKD", "description": "Inhibition of dihydrofolate reductase from rat liver."}, "SF-295": {"tested_on": "SF-295", "test": "[…] cytotoxic evaluation against CNS cancer SF-295 cell line", "format": "functional, Homo sapiens"}, "MOLT-4": {"tested_on": "MOLT-4", "test": "[…] cytotoxic evaluation against human leukemic Molt-4 cell line", "format": "functional"}, "HCC 2998": {"tested_on": "HCC 2998", "test": "[…] cytotoxic evaluation against colon cancer HCC2998 cell line", "format": "functional, Homo sapiens"}, "LOX IMVI": {"tested_on": "LOX IMVI", "test": "[…] cytotoxic evaluation against melanoma LOX IMVI cell line", "format": "functional, Homo sapiens"}, "EKVX": {"tested_on": "EKVX", "test": "[…] cytotoxic evaluation against human lung cancer EKVX cell line", "format": "functional"}, "HCT-116": {"tested_on": "HCT-116", "test": "In vitro cytotoxic evaluation against colon cancer HCT116 cell line"}, "K562": {"tested_on": "K562", "test": "[…] cytotoxic evaluation against human leukemic K-562 cell line", "format": "functional"}, "MDA-MB-435": {"tested_on": "MDA-MB-435", "test": "[…] cytotoxic evaluation against breast cancer MDA-MB-435 cell line", "format": "functional, Homo sapiens"}, "COLO 205": {"tested_on": "COLO 205", "test": "[…] cytotoxic evaluation against colon cancer COLO 205 cell line", "format": "functional, Homo sapiens"}, "SK-MEL-5": {"tested_on": "SK-MEL-5", "test": "[…] cytotoxic evaluation against melanoma SK-MEL-5 cell line", "format": "functional, Homo sapiens"}, "MDA-N": {"tested_on": "MDA-N", "test": "[…] cytotoxic evaluation against breast cancer MDA-N cell line", "format": "functional, Homo sapiens"}, "Pneumocystis carinii [4]": {"tested_on": "Pneumocystis carinii", "test": "Inhibitory activity against cell growth of pneumocystis carinii measured by direct counting of organisms in the culture supernatant fluid at 50.7 uM"}, "Toxoplasma gondii [5]": {"tested_on": "Toxoplasma gondii", "test": "Inhibitory activity against cell growth of Toxoplasma gondii measured by the incorporation of [3H]uracil at 7.8 uM"}, "Pneumocystis carinii [6]": {"tested_on": "Pneumocystis carinii", "test": "Inhibitory activity against cell growth of pneumocystis carinii measured by direct counting of organisms in the culture supernatant fluid at 10 uM"}, "Toxoplasma gondii [7]": {"tested_on": "Toxoplasma gondii", "test": "Inhibitory activity against cell growth of Toxoplasma gondii measured by the incorporation of [3H]uracil at […]"}, "Toxoplasma gondii [8]": {"tested_on": "Toxoplasma gondii", "test": "Inhibitory activity against cell growth of Toxoplasma gondii measured by the incorporation of [3H]uracil at 10 uM"}}}
{"smiles": "COc1cc(NCc2ccc3nc(N)nc(N)c3c2C)cc(OC)c1OC", "values": [{"measurement": "Ratio", "setting": "[1]", "result": 0.07}, {"measurement": "Ratio", "setting": "[2]", "result": 0.3}]}
{"smiles": "Nc1nc(N)c2cc(CNc3ccccc3)cnc2n1", "values": [{"measurement": "Inhibition", "setting": "Toxoplasma gondii [3]", "result": 0, "unit": "%"}]}
{"smiles": "CN(Cc1cnc2nc(N)nc(N)c2c1)c1ccccc1", "values": [{"measurement": "IC50", "setting": "Dihydrofolate reductase", "result": 395000, "unit": "nM"}]}
{"smiles": "Nc1nc(N)c2cc(CNc3ccc4ccccc4c3)cnc2n1", "values": [{"measurement": "GI50", "setting": "SF-295", "result": 8200, "unit": "nM"}, {"measurement": "GI50", "setting": "MOLT-4", "result": 2000, "unit": "nM"}, {"measurement": "GI50", "setting": "HCC 2998", "result": 1100, "unit": "nM"}, {"measurement": "GI50", "setting": "LOX IMVI", "result": 1600, "unit": "nM"}, {"measurement": "GI50", "setting": "EKVX", "result": 9000, "unit": "nM"}, {"measurement": "IC50", "setting": "Dihydrofolate reductase", "result": 4900, "unit": "nM"}, {"measurement": "GI50", "setting": "HCT-116", "result": 1900, "unit": "nM"}, {"measurement": "GI50", "setting": "K562", "result": 500, "unit": "nM"}, {"measurement": "GI50", "setting": "MDA-MB-435", "result": 10000, "unit": "nM"}, {"measurement": "GI50", "setting": "COLO 205", "result": 2400, "unit": "nM"}, {"measurement": "GI50", "setting": "SK-MEL-5", "result": 3200, "unit": "nM"}, {"measurement": "GI50", "setting": "MDA-N", "result": 4400, "unit": "nM"}]}
{"smiles": "COc1cc(NCc2cnc3nc(N)nc(N)c3c2C)cc(OC)c1OC", "values": [{"measurement": "Ratio", "setting": "[1]", "result": 0.02}, {"measurement": "Ratio", "setting": "[2]", "result": 0.3}]}
{"smiles": "CN(Cc1cnc2nc(N)nc(N)c2c1)c1ccc(Cl)c(Cl)c1", "values": [{"measurement": "IC50", "setting": "Dihydrofolate reductase", "result": 180, "unit": "nM"}]}
{"smiles": "Nc1nc(N)c2cc(CNc3cc(Cl)c(Cl)c(Cl)c3)cnc2n1", "values": [{"measurement": "GI50", "setting": "SF-295", "result": 740, "unit": "nM"}, {"measurement": "GI50", "setting": "MOLT-4", "result": 710, "unit": "nM"}, {"measurement": "GI50", "setting": "HCC 2998", "result": 780, "unit": "nM"}, {"measurement": "GI50", "setting": "LOX IMVI", "result": 31, "unit": "nM"}, {"measurement": "GI50", "setting": "EKVX", "result": 850, "unit": "nM"}, {"measurement": "IC50", "setting": "Dihydrofolate reductase", "result": 4600, "unit": "nM"}, {"measurement": "GI50", "setting": "HCT-116", "result": 740, "unit": "nM"}, {"measurement": "GI50", "setting": "K562", "result": 350, "unit": "nM"}, {"measurement": "GI50", "setting": "MDA-MB-435", "result": 570, "unit": "nM"}, {"measurement": "GI50", "setting": "COLO 205", "result": 310, "unit": "nM"}, {"measurement": "GI50", "setting": "SK-MEL-5", "result": 350, "unit": "nM"}, {"measurement": "GI50", "setting": "MDA-N", "result": 500, "unit": "nM"}]}
{"smiles": "Nc1nc(N)c2cc(CNc3cccc4ccccc34)cnc2n1", "values": [{"measurement": "IC50", "setting": "Dihydrofolate reductase", "result": 600, "unit": "nM"}, {"measurement": "inhibition at 50.7 µM", "setting": "Pneumocystis carinii [4]", "result": 50, "unit": "%"}, {"measurement": "inhibition at 7.8 µM", "setting": "Toxoplasma gondii [5]", "result": 50, "unit": "%"}]}
{"smiles": "Nc1nc(N)c2cc(CNc3cc(Cl)ccc3Cl)cnc2n1", "values": [{"measurement": "GI50", "setting": "SF-295", "result": 4000, "unit": "nM"}, {"measurement": "GI50", "setting": "MOLT-4", "result": 2000, "unit": "nM"}, {"measurement": "GI50", "setting": "HCC 2998", "result": 3000, "unit": "nM"}, {"measurement": "GI50", "setting": "LOX IMVI", "result": 710, "unit": "nM"}, {"measurement": "GI50", "setting": "EKVX", "result": 6600, "unit": "nM"}, {"measurement": "inhibition at 10 µM", "setting": "Pneumocystis carinii [6]", "result": 88, "unit": "%"}, {"measurement": "IC50", "setting": "Dihydrofolate reductase", "result": 6900, "unit": "nM"}, {"measurement": "GI50", "setting": "HCT-116", "result": 2100, "unit": "nM"}, {"measurement": "GI50", "setting": "K562", "result": 1600, "unit": "nM"}, {"measurement": "inhibition at […]", "setting": "Toxoplasma gondii [7]", "result": 50, "unit": "%"}, {"measurement": "GI50", "setting": "MDA-MB-435", "result": 2400, "unit": "nM"}, {"measurement": "GI50", "setting": "COLO 205", "result": 2300, "unit": "nM"}, {"measurement": "GI50", "setting": "SK-MEL-5", "result": 2200, "unit": "nM"}, {"measurement": "GI50", "setting": "MDA-N", "result": 3000, "unit": "nM"}]}
{"smiles": "COc1ccc(OC)c(CN(C)c2cnc3nc(N)nc(N)c3c2)c1", "values": [{"measurement": "Ratio", "setting": "[1]", "result": 0.7}, {"measurement": "Ratio", "setting": "[2]", "result": 9}]}
{"smiles": "COc1cccc(NCc2cnc3nc(N)nc(N)c3c2)c1", "values": [{"measurement": "IC50", "setting": "Dihydrofolate reductase", "result": 790, "unit": "nM"}]}
{"smiles": "COc1ccc(OC)c(NCc2cnc3nc(N)nc(N)c3c2)c1", "values": [{"measurement": "inhibition at 10 µM", "setting": "Toxoplasma gondii [8]", "result": "< 50", "unit": "%"}, {"measurement": "IC50", "setting": "Dihydrofolate reductase", "result": 5000, "unit": "nM"}]}
{"smiles": "CN(Cc1cnc2nc(N)nc(N)c2c1)c1cc(Cl)c(Cl)c(Cl)c1", "values": [{"measurement": "IC50", "setting": "Dihydrofolate reductase", "result": 270, "unit": "nM"}]}
{"smiles": "Nc1nc(N)c2cc(CNc3ccc(Cl)c(Cl)c3)cnc2n1", "values": [{"measurement": "GI50", "setting": "SF-295", "result": 3800, "unit": "nM"}, {"measurement": "GI50", "setting": "MOLT-4", "result": 1100, "unit": "nM"}, {"measurement": "GI50", "setting": "HCC 2998", "result": 2700, "unit": "nM"}, {"measurement": "GI50", "setting": "LOX IMVI", "result": 820, "unit": "nM"}, {"measurement": "GI50", "setting": "EKVX", "result": 2400, "unit": "nM"}, {"measurement": "IC50", "setting": "Dihydrofolate reductase", "result": 480, "unit": "nM"}, {"measurement": "GI50", "setting": "HCT-116", "result": 620, "unit": "nM"}, {"measurement": "GI50", "setting": "K562", "result": 330, "unit": "nM"}, {"measurement": "GI50", "setting": "MDA-MB-435", "result": 1300, "unit": "nM"}, {"measurement": "GI50", "setting": "COLO 205", "result": 1700, "unit": "nM"}, {"measurement": "GI50", "setting": "SK-MEL-5", "result": 1100, "unit": "nM"}, {"measurement": "GI50", "setting": "MDA-N", "result": 950, "unit": "nM"}]}
{"smiles": "COc1ccc(NCc2cnc3nc(N)nc(N)c3c2)cc1OC", "values": [{"measurement": "IC50", "setting": "Dihydrofolate reductase", "result": 560, "unit": "nM"}]}
